Test results published in PubChem BioAssay AID208 (DTP/NCI, 2004).
Values joined by “and” are separate entries in the source; they are usually repeats but may differ in a detail not shown here. Equal entries are not always repeated. Results filed as inconclusive are left out.

Tested on: HT29 intrarenal xenograft, nude mice, tumor weight change
Assay: NCI In Vivo Anticancer Drug Screen. Data for tumor model HT29;CX-1 Human Adenocarcinoma (MER+) (intrarenal inoculation) in NU/NU BALB/C (nude) mice
Settings: endpoint: mean tumor weight change, higher = larger tumour
Protocol: The antitumor activity of compounds was measured in mice bearing transplantable tumors. Survival or tumor size were measured and the results are expressed as the measurement made in the treated group (T) divided by the measurement made in the vehicle treated control group (C). The tumor model used in this assay is HT29;CX-1 Human Adenocarcinoma (MER+) (intrarenal inoculation) in NU/NU BALB/C (nude) mice

[1] = dose: 1200.0 mg/kg/injection, schedule: Q04DX004 (sc), vehicle: saline with Tween-80
[2] = dose: 75.0 mg/kg/injection, schedule: Q04DX004 (sc), vehicle: saline
[3] = dose: 150.0 mg/kg/injection, schedule: Q04DX004 (sc), vehicle: saline
[4] = dose: 300.0 mg/kg/injection, schedule: Q04DX004 (sc), vehicle: saline
[5] = dose: 600.0 mg/kg/injection, schedule: Q04DX004 (sc), vehicle: saline
[6] = dose: 50.0 mg/kg/injection, schedule: Q01DX010 (sc), vehicle: saline
[7] = dose: 100.0 mg/kg/injection, schedule: Q01DX010 (sc), vehicle: saline
[8] = dose: 300.0 mg/kg/injection, schedule: Q04DX004 (sc), vehicle: saline with Tween-80
[9] = dose: 600.0 mg/kg/injection, schedule: Q04DX004 (sc), vehicle: saline with Tween-80
[10] = dose: 2400.0 mg/kg/injection, schedule: Q04DX004 (sc), vehicle: saline with Tween-80

SMILES: CC(/C=C/c1ccccc1)=Nc1ccccc1
- T/C [1]: 46 % of control
- T/C (dose: 1800.0 mg/kg/injection, schedule: Q04DX004 (sc), vehicle: saline with Tween-80): 54 % of control

SMILES: COc1cc2c(ccc3c4cc(OC)c(OC)cc4c[n+](C)c23)cc1O
- T/C [2]: 49 % of control
- T/C [3]: 42 % of control
- T/C [4]: 51 % of control
- T/C [5]: 75 % of control

SMILES: N[C@@H](Cc1ccc(N(CCCl)CCCl)cc1)C(=O)O
- T/C (dose: 1.0 mg/kg/injection, schedule: Q01DX010 (sc), vehicle: saline): 28 % of control
- T/C (dose: 2.0 mg/kg/injection, schedule: Q01DX010 (sc), vehicle: saline): 3 % of control

SMILES: O=C(O)C1(NO)CCCCC1
- T/C (dose: 200.0 mg/kg/injection, schedule: Q04DX004 (sc), vehicle: Klucel (hydroxypropylcellulose) (HPC)): 168 % of control
- T/C (dose: 400.0 mg/kg/injection, schedule: Q04DX004 (sc), vehicle: Klucel (hydroxypropylcellulose) (HPC)): 122 % of control
- T/C (dose: 1600.0 mg/kg/injection, schedule: Q04DX004 (sc), vehicle: Klucel (hydroxypropylcellulose) (HPC)): 92 % of control

SMILES: C=CC(C)NC(=S)NNC(=S)NC (centres undefined)
- T/C (dose: 150.0 mg/kg/injection, schedule: Q04DX004 (sc), vehicle: saline + alcohol): 91 % of control
- T/C (dose: 300.0 mg/kg/injection, schedule: Q04DX004 (sc), vehicle: saline + alcohol): 44 % of control
- T/C (dose: 600.0 mg/kg/injection, schedule: Q04DX004 (sc), vehicle: saline + alcohol): 97 % of control
- T/C (dose: 1200.0 mg/kg/injection, schedule: Q04DX004 (sc), vehicle: saline + alcohol): 74 % of control

SMILES: C[N+](C)(C)c1ncnc2nc[nH]c12
- T/C [6]: 111 % of control
- T/C [7]: 83 % of control
- T/C (dose: 200.0 mg/kg/injection, schedule: Q01DX010 (sc), vehicle: saline): 29 % of control

SMILES: CN(C)CCOc1ccc2c(c1)C/C(=C/c1ncc([N+](=O)[O-])n1C)C2=O
- T/C [8]: 89 % of control
- T/C [9]: 33 % of control
- T/C [1]: 69 % of control
- T/C [10]: 65 % of control

SMILES: O=C1OC(C(O)CO)C(O)=C1O (centres undefined)
- T/C (dose: 400.0 mg/kg/injection, schedule: Q01DX010 (sc), vehicle: saline): 113 % of control
- T/C (dose: 800.0 mg/kg/injection, schedule: Q01DX010 (sc), vehicle: saline): 167 % of control

SMILES: O=[N+]([O-])O.O=[N+]([O-])O.[NH-]C1CCCCC1[NH-].[Pt+2] (centres undefined)
- T/C (dose: 0.5 mg/kg/injection, schedule: Q01DX010 (sc), vehicle: dextrose): 87 % of control
- T/C (dose: 1.0 mg/kg/injection, schedule: Q01DX010 (sc), vehicle: dextrose): 62 % of control
- T/C (dose: 2.0 mg/kg/injection, schedule: Q01DX010 (sc), vehicle: dextrose): 36 % of control

SMILES: O=C1CCC(=O)N1CO
- T/C [3]: 66 % of control
- T/C [4]: 80 % of control
- T/C [5]: 74 % of control

SMILES: CN(C)CCC(=O)C(=Cc1ccc(O)cc1)C(=O)CCN(C)C
- T/C (dose: 75.0 mg/kg/injection, schedule: Q04DX004 (ip), vehicle: saline): 66 % of control
- T/C (dose: 150.0 mg/kg/injection, schedule: Q04DX004 (ip), vehicle: saline): 100 % of control

SMILES: OC1(CSc2ccccc2)CCCCC1
- T/C [1]: 65 % of control
- T/C [10]: 68 % of control

SMILES: O=C(O)CP(=O)(O)O
- T/C [5]: 51 % of control
- T/C (dose: 1200.0 mg/kg/injection, schedule: Q04DX004 (sc), vehicle: saline): 118 % of control
- T/C (dose: 2400.0 mg/kg/injection, schedule: Q04DX004 (sc), vehicle: saline): 34 % of control

SMILES: CNC=O
- T/C (dose: 100.0 mg/kg/injection, schedule: Q01DX010 (ip), vehicle: saline): 81 % of control
- T/C (dose: 200.0 mg/kg/injection, schedule: Q01DX010 (ip), vehicle: saline): 64 % of control
- T/C (dose: 400.0 mg/kg/injection, schedule: Q01DX010 (ip), vehicle: saline): -33 % of control

SMILES: CCOC(=O)c1ccc(NC(=O)Nc2nncs2)cc1
- T/C (dose: 100.0 mg/kg/injection, schedule: Q01DX010 (sc), vehicle: distilled water + Tween-80): 52 % of control
- T/C (dose: 200.0 mg/kg/injection, schedule: Q01DX010 (sc), vehicle: distilled water + Tween-80): 69 % of control
- T/C (dose: 800.0 mg/kg/injection, schedule: Q01DX010 (sc), vehicle: distilled water + Tween-80): 84 % of control

SMILES: CCOC(=O)NC1=C(N2CC2)C(=O)C(NC(=O)OCC)=C(N2CC2)C1=O
- T/C (dose: 1.56 mg/kg/injection, schedule: Q01DX010 (sc), vehicle: saline): 120 % of control
- T/C (dose: 3.13 mg/kg/injection, schedule: Q01DX010 (sc), vehicle: saline): 88 % of control
- T/C (dose: 6.25 mg/kg/injection, schedule: Q01DX010 (sc), vehicle: saline): 107 % of control

SMILES: Cn1ccc(=Nc2ccc(NC(=O)c3ccc(N=c4ccn(C)c5ccc([N+](=O)[O-])cc45)cc3[N+](=O)[O-])cc2)cc1
- T/C [8]: 102 % of control
- T/C [9]: 104 % of control
- T/C [1]: 164 % of control
- T/C [10]: 156 % of control

SMILES: N=c1c(C(=O)OCc2ccccc2)ncc(CCl)n1O
- T/C (dose: 150.0 mg/kg/injection, schedule: Q04DX004 (sc), vehicle: saline with Tween-80): 67 % of control
- T/C [8]: 58 % of control
- T/C [9]: 49 % of control
- T/C [1]: 75 % of control

SMILES: O=C(O)CC(=O)O.[NH-]C1CCCCC1[NH-].[Pt+2] (centres undefined)
- T/C (dose: 10.0 mg/kg/injection, schedule: Q01DX010 (sc), vehicle: dextrose): 64 % of control
- T/C (dose: 20.0 mg/kg/injection, schedule: Q01DX010 (sc), vehicle: dextrose): 40 % of control
- T/C (dose: 40.0 mg/kg/injection, schedule: Q01DX010 (sc), vehicle: dextrose): 7 % of control

SMILES: NC1(C(=O)O)CCCC1
- T/C [6]: 37 % of control and 40 % of control
- T/C [7]: 12 % of control and 22 % of control

SMILES: BrCCC1(CCBr)CCCCC1
- T/C (dose: 300.0 mg/kg/injection, schedule: Q04DX004 (sc), vehicle: water): 97 % of control
- T/C (dose: 600.0 mg/kg/injection, schedule: Q04DX004 (sc), vehicle: water): 77 % of control
- T/C (dose: 1200.0 mg/kg/injection, schedule: Q04DX004 (sc), vehicle: water): 58 % of control
- T/C (dose: 2400.0 mg/kg/injection, schedule: Q04DX004 (sc), vehicle: water): 76 % of control

SMILES: C=C(C)[C@@H]1CCc2c(O)c(O)c(=O)cc(C)c2C1
- T/C [2]: 192 % of control

SMILES: Oc1ccc(O)cc1
- T/C (dose: 100.0 mg/kg/injection, schedule: Q04DX004 (sc), vehicle: saline): 106 % of control

SMILES: Cc1cc2cc3cc(C)c(N)cc3nc2cc1N
- T/C [9]: 115 % of control
- T/C [10]: 77 % of control

SMILES: CC(=O)Oc1ccc[nH]c1=O
- T/C (dose: 200.0 mg/kg/injection, schedule: Q04DX004 (sc), vehicle: saline with Tween-80): 88 % of control
- T/C (dose: 400.0 mg/kg/injection, schedule: Q04DX004 (sc), vehicle: saline with Tween-80): 104 % of control
- T/C (dose: 800.0 mg/kg/injection, schedule: Q04DX004 (sc), vehicle: saline with Tween-80): 122 % of control

SMILES: CCCCc1ccc2nc(NC(=O)OC)[nH]c2c1
- T/C (dose: 25.0 mg/kg/injection, schedule: Q01DX010 (sc), vehicle: saline with Tween-80): 108 % of control
- T/C (dose: 100.0 mg/kg/injection, schedule: Q01DX010 (sc), vehicle: saline with Tween-80): 90 % of control
- T/C (dose: 200.0 mg/kg/injection, schedule: Q01DX010 (sc), vehicle: saline with Tween-80): 94 % of control

SMILES: COc1cc([C@@H]2c3cc4c(cc3[C@@H](OC3OC5CO[C@@H](c6cccs6)OC5C(O)C3O)[C@H]3COC(=O)[C@H]23)OCO4)cc(OC)c1O (some centres undefined)
- T/C (dose: 8.0 mg/kg/injection, schedule: Q01DX010 (sc), vehicle: saline): 225 % of control
- T/C (dose: 16.0 mg/kg/injection, schedule: Q01DX010 (sc), vehicle: saline): 221 % of control
- T/C (dose: 32.0 mg/kg/injection, schedule: Q01DX010 (sc), vehicle: saline): 189 % of control
- T/C (dose: 33.0 mg/kg/injection, schedule: Q01DX010 (sc), vehicle: saline): 191 % of control
- T/C (dose: 66.0 mg/kg/injection, schedule: Q01DX010 (sc), vehicle: saline): 60 % of control
- T/C (dose: 132.0 mg/kg/injection, schedule: Q01DX010 (sc), vehicle: saline): 151 % of control
- T/C (dose: 264.0 mg/kg/injection, schedule: Q01DX010 (sc), vehicle: saline): 38 % of control

SMILES: CCCCCCCC(=O)OCC(=O)[C@]1(O)Cc2c(O)c3c(c(O)c2[C@@H](OC2CC(N)C(O)C(C)O2)C1)C(=O)c1c(OC)cccc1C3=O (some centres undefined)
- T/C (dose: 2.0 mg/kg/injection, schedule: Q04DX004 (sc), vehicle: saline): 63 % of control
- T/C (dose: 4.0 mg/kg/injection, schedule: Q04DX004 (sc), vehicle: saline): 78 % of control
- T/C (dose: 8.0 mg/kg/injection, schedule: Q04DX004 (sc), vehicle: saline): 48 % of control
- T/C (dose: 16.0 mg/kg/injection, schedule: Q04DX004 (sc), vehicle: saline): 30 % of control
